Test results as given in PMC8327742 (Haematologica, 2021).
Read-outs that look alike come from different tables or passages of the source.

Columns and labels:
EBF1-PDGFRB [1] = experiment: viability assay of transformed Ba/F3 cells; type: cell-based, Homo sapiens; details: Ba/F3 cells with wild-type fusion; cell viability read-out
EBF1-PDGFRB [2] = details: Ba/F3 cells with mutant fusion; cell viability read-out; gatekeeper; stated gain

IC50 (EBF1-PDGFRB [1]) [nM] | SMILES | IC50 (EBF1-PDGFRB [2]) [nM]
5.26 | Cc1nc(Nc2ncc(C(=O)Nc3c(C)cccc3Cl)s2)cc(N2CCN(CCO)CC2)n1 [dasatinib] | –
5.73 | Cc1ccc(C(=O)Nc2ccc(CN3CCN(C)CC3)c(C(F)(F)F)c2)cc1C#Cc1cnc2cccnn12 [ponatinib] | 23.93
